Measurements reported in US10906890B2, “Triazole phenyl compounds as agonists of the APJ receptor” (AMGEN INC., priority 2016, dated 2021).

Each compound was assayed against human APJ receptor (Homo sapiens (Human), UniProt P35414) (assay: [35S]GTPγS binding assay on membranes from CHO cells stably expressing human APJ receptor). Conditions: means of several independent experiments, read-out: Activity hAPJ SPA EC50 IP.
Format: biochemical
Method: The human APJ receptor was cloned by polymerase chain reaction and the gene encoding the receptor was subcloned in pFLAG-CMV™-3 expression vector (Sigma, Saint Louis, Mo. USA) in-house at Amgen. A GTPγS binding assay was performed on membranes prepared from CHO cells stably expressing human APJ receptor. The optimum experimental conditions for the concentrations of GDP, MgCl2, and NaCl in the assay buffer were initially determined. […] Incubation was at RT for 90 min and the microplate was read using a ViewLux™ ultra HTS Microplate Imager (PerkinElmer, Inc.). All the results presented are means of several independent experiments and analyzed by non-linear regression methods using the commercially available program Prism (GraphPad, San Diego, Calif.) providing the EC50 values detailed in Table 28.

Chain of human APJ receptor (P35414 whole entry): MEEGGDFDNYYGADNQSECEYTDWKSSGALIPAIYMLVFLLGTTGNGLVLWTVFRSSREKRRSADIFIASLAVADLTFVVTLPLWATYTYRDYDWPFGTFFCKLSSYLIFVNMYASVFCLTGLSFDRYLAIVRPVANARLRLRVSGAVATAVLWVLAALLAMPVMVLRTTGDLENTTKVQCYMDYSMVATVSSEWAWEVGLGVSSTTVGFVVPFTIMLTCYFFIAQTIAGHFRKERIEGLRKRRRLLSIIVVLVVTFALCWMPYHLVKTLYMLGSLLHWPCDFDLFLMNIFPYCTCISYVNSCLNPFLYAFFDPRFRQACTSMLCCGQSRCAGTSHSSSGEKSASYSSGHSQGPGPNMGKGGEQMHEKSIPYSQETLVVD

How did the EC50 turn out when `COc1ccnc(OC)c1-n1c(NS(=O)(=O)[C@@H](C)[C@H](C)c2cnc(C)cn2)nnc1-c1ccccc1` (single isomer, unassigned) [Example 54.0, (2S,3R,P)-N-(4-(2,4-dimethoxy-3-pyridinyl)-5-phenyl-4H-1,2,4-triazol-3-yl)-3-(5-methyl-2-pyrazinyl)-2-butanesulfonamide or (2S,3R,M)-N-(4-(2,4-dimethoxy-3-pyridinyl)-5-phenyl-4H-1,2,4-triazol-3-yl)-3-(5-methyl-2-pyrazinyl)-2-butanesulfonamide] was run?
The EC50 was 14 nM.

With `COc1ccnc(OC)c1-n1c(NS(=O)(=O)[C@@H](C)[C@H](C)c2cnc(C)cn2)nnc1-c1ccccc1` (single isomer, unassigned) [Example 55.0, (2S,3R,P)-N-(4-(2,4-dimethoxy-3-pyridinyl)-5-phenyl-4H-1,2,4-triazol-3-yl)-3-(5-methyl-2-pyrazinyl)-2-butanesulfonamide or (2S,3R,M)-N-(4-(2,4-dimethoxy-3-pyridinyl)-5-phenyl-4H-1,2,4-triazol-3-yl)-3-(5-methyl-2-pyrazinyl)-2-butanesulfonamide] as the compound, how does the EC50 read?
Its EC50 is 0.33 nM.

Which EC50 does the source give for `COc1cccc(OC)c1-n1c(NS(=O)(=O)[C@H]2C[C@@H](O)CN(c3ncc(F)cn3)C2)nnc1-c1ccccc1` (single isomer, unassigned) [Example 56.0, (3R,5S)-N-(4-(2,6-dimethoxyphenyl)-5-phenyl-4H-1,2,4-triazol-3-yl)-1-(5-fluoro-2-pyrimidinyl)-5-hydroxy-3-piperidinesulfonamide or (3S,5R)-N-(4-(2,6-dimethoxyphenyl)-5-phenyl-4H-1,2,4-triazol-3-yl)-1-(5-fluoro-2-pyrimidinyl)-5-hydroxy-3-piperidinesulfonamide] here?
The EC50 was 30 nM.

Which EC50 does the source give for `COc1cccc(OC)c1-n1c(NS(=O)(=O)[C@H]2C[C@@H](O)CN(c3ncc(F)cn3)C2)nnc1-c1ccccc1` (single isomer, unassigned) [Example 57.0, (3R,5S)-N-(4-(2,6-dimethoxyphenyl)-5-phenyl-4H-1,2,4-triazol-3-yl)-1-(5-fluoro-2-pyrimidinyl)-5-hydroxy-3-piperidinesulfonamide or (3S,5R)-N-(4-(2,6-dimethoxyphenyl)-5-phenyl-4H-1,2,4-triazol-3-yl)-1-(5-fluoro-2-pyrimidinyl)-5-hydroxy-3-piperidinesulfonamide] here?
The EC50 was 1.4 nM.

`COc1cccc(OC)c1-n1c(NS(=O)(=O)[C@H]2C[C@@H](OC(C)C)CN(c3ncc(F)cn3)C2)nnc1-c1ccccc1` (single isomer, unassigned) [Example 58.0, (3R,5S)-N-(4-(2,6-dimethoxyphenyl)-5-phenyl-4H-1,2,4-triazol-3-yl)-1-(5-fluoro-2-pyrimidinyl)-5-(1-methylethoxy)-3-piperidinesulfonamide or (3S,5R)-N-(4-(2,6-dimethoxyphenyl)-5-phenyl-4H-1,2,4-triazol-3-yl)-1-(5-fluoro-2-pyrimidinyl)-5-(1-methylethoxy)-3-piperidinesulfonamide] was tested. Which EC50 did it give?
Its EC50 is 0.94 nM.

For `COc1cccc(OC)c1-n1c(NS(=O)(=O)[C@H]2C[C@@H](OC(C)C)CN(c3ncc(F)cn3)C2)nnc1-c1ccccc1` (single isomer, unassigned) [Example 59.0, (3R,5S)-N-(4-(2,6-dimethoxyphenyl)-5-phenyl-4H-1,2,4-triazol-3-yl)-1-(5-fluoro-2-pyrimidinyl)-5-(1-methylethoxy)-3-piperidinesulfonamide or (3S,5R)-N-(4-(2,6-dimethoxyphenyl)-5-phenyl-4H-1,2,4-triazol-3-yl)-1-(5-fluoro-2-pyrimidinyl)-5-(1-methylethoxy)-3-piperidinesulfonamide], which EC50 is on record?
The EC50 was 86 nM.

With `COc1ncnc(OC)c1-n1c(NS(=O)(=O)[C@H]2C[C@@H](OC(C)C)CN(c3ncc(F)cn3)C2)nnc1-c1ccccc1` (single isomer, unassigned) [Example 64.0, (3R,5S)-N-(4-(4,6-dimethoxy-5-pyrimidinyl)-5-phenyl-4H-1,2,4-triazol-3-yl)-1-(5-fluoro-2-pyrimidinyl)-5-(1-methylethoxy)-3-piperidinesulfonamide or (3S,5R)-N-(4-(4,6-dimethoxy-5-pyrimidinyl)-5-phenyl-4H-1,2,4-triazol-3-yl)-1-(5-fluoro-2-pyrimidinyl)-5-(1-methylethoxy)-3-piperidinesulfonamide] as the compound, how does the EC50 read?
Its EC50 is 4.7 nM.

For `COc1ncnc(OC)c1-n1c(NS(=O)(=O)[C@@H](C)[C@H](OC)c2ncc(C)cn2)nnc1-c1cccc(Br)c1` [Example 1.0, (1R,2S)—N-(5-(3-Bromophenyl)-4-(4,6-dimethoxypyrimidin-5-yl)-4H-1,2,4-triazol-3-yl)-1-methoxy-1-(5-methylpyrimidin-2-yl)propane-2-sulfonamide], which EC50 is on record?
Its EC50 is 4.2 nM.

Which EC50 does the source give for `COc1ncnc(OC)c1-n1c(NS(=O)(=O)[C@@H](C)[C@H](OC)c2ncc(C)cn2)nnc1-c1cccc(C#N)c1` [Example 2.0, (1R,2S)-N-(5-(3-cyanophenyl)-4-(4,6-dimethoxypyrimidin-5-yl)-4H-1,2,4-triazol-3-yl)-1-methoxy-1-(5-methylpyrimidin-2-yl)propane-2-sulfonamide] here?
Its EC50 is 110 nM.

For `COc1ncnc(OC)c1-n1c(NS(=O)(=O)[C@@H](C)[C@H](OC)c2ncc(C)cn2)nnc1-c1cccc(Cl)c1` [Example 3.0, (1R,25)-N-(5-(3-chlorophenyl)-4-(4,6-dimethoxypyrimidin-5-yl)-4H-1,2,4-triazol-3-yl)-1-methoxy-1-(5-methylpyrimidin-2-yl)propane-2-sulfonamide], which EC50 is on record?
Its EC50 is 5.3 nM.

`COc1ncnc(OC)c1-n1c(NS(=O)(=O)[C@@H](C)[C@H](OC)c2ncc(C)cn2)nnc1-c1ccccc1` [Example 4.0, (1R,2S)-N-(4-(4,6-dimethoxypyrimidin-5-yl)-5-phenyl-4H-1,2,4-triazol-3-yl)-1-methoxy-1-(5-methylpyrimidin-2-yl)propane-2-sulfonamide] was tested. Which EC50 did it give?
Its EC50 is 2.9 nM.

Which EC50 does the source give for `COc1ncnc(OC)c1-n1c(NS(=O)(=O)[C@@H](C)[C@H](C)c2ncc(C)cn2)nnc1-c1ccccc1` [Example 5.0, (2S,3R)-N-(4-(4,6-dimethoxy-5-pyrimidinyl)-5-phenyl-4H-1,2,4-triazol-3-yl)-3-(5-methyl-2-pyrimidinyl)-2-butanesulfonamide] here?
The EC50 was 2.3 nM.

`COc1cccc(-c2nnc(NS(=O)(=O)[C@@H](C)[C@H](OC)c3ncc(C)cn3)n2-c2c(OC)ncnc2OC)c1` [Example 6.0, (1R,2S)-N-(4-(4,6-dimethoxy-5-pyrimidinyl)-5-(3-methoxyphenyl)-4H-1,2,4-triazol-3-yl)-1-methoxy-1-(5-methyl-2-pyrimidinyl)-2-propanesulfonamide] was tested. Which EC50 did it give?
Its EC50 is 6.8 nM.

With `COc1ncnc(OC)c1-n1c(NS(=O)(=O)CCc2ccc(F)cc2C#N)nnc1-c1ccccc1` [Example 10.0, 2-(2-cyano-4-fluorophenyl)-N-(4-(4,6-dimethoxy-5-pyrimidinyl)-5-phenyl-4H-1,2,4-triazol-3-yl)ethanesulfonamide] as the compound, how does the EC50 read?
Its EC50 is 42 nM.

`COc1cccc(OC)c1-n1c(NS(=O)(=O)CCc2ccc(F)cc2C#N)nnc1-c1ccccc1` [Example 12.0, 2-(2-cyano-4-fluorophenyl)-N-(4-(2,6-dimethoxyphenyl)-5-phenyl-4H-1,2,4-triazol-3-yl)ethanesulfonamide] was tested. Which EC50 did it give?
The EC50 was 8.5 nM.

`COc1cccc(OC)c1-n1c(NS(=O)(=O)[C@@H](C)[C@@H](OC(C)C)c2ncc(C)cn2)nnc1-c1ccccc1` [Example 13.0, (1S,2S)-N-(4-(2,6-dimethoxyphenyl)-5-phenyl-4H-1,2,4-triazol-3-yl)-1-(1-methylethoxy)-1-(5-methyl-2-pyrimidinyl)-2-propanesulfonamide] was tested. Which EC50 did it give?
Its EC50 is 0.22 nM.

For `COc1ncnc(OC)c1-n1c(NS(=O)(=O)[C@@H](C)[C@@H](OC(C)C)c2ncc(C)cn2)nnc1-c1ccccc1` [Example 14.0, (1S,2S)-N-(4-(4,6-dimethoxy-5-pyrimidinyl)-5-phenyl-4H-1,2,4-triazol-3-yl)-1-(1-methylethoxy)-1-(5-methyl-2-pyrimidinyl)-2-propanesulfonamide], which EC50 is on record?
The EC50 was 0.55 nM.

For `COc1cccc(OC)c1-n1c(NS(=O)(=O)[C@@H](C)[C@H](C)c2ncc(C)cn2)nnc1-c1ccccc1` [Example 15.0, (2S,3R)-N-(4-(2,6-dimethoxyphenyl)-5-phenyl-4H-1,2,4-triazol-3-yl)-3-(5-methyl-2-pyrimidinyl)-2-butanesulfonamide], which EC50 is on record?
Its EC50 is 0.89 nM.

Which EC50 does the source give for `COc1cccc(OC)c1-n1c(NS(=O)(=O)[C@@H](C)[C@H](C)c2ncc(Cl)cn2)nnc1-c1ccccc1` [Example 16.0, (2S,3R)-3-(5-chloro-2-pyrimidinyl)-N-(4-(2,6-dimethoxyphenyl)-5-phenyl-4H-1,2,4-triazol-3-yl)-2-butanesulfonamide] here?
Its EC50 is 0.2 nM.

How did the EC50 turn out when `COc1ncnc(OC)c1-n1c(NS(=O)(=O)[C@@H](C)[C@H](C)c2ncc(Cl)cn2)nnc1-c1ccccc1` [Example 17.0, (2S,3R)-3-(5-chloro-2-pyrimidinyl)-N-(4-(4,6-dimethoxy-5-pyrimidinyl)-5-phenyl-4H-1,2,4-triazol-3-yl)-2-butanesulfonamide] was run?
Its EC50 is 0.89 nM.

For `COc1cccc(OC)c1-n1c(NS(=O)(=O)[C@@H](C)[C@H](O)c2ncc(C)cn2)nnc1-c1ccccc1` [Example 18.0, (1R,2S)-N-(4-(2,6-dimethoxyphenyl)-5-phenyl-4H-1,2,4-triazol-3-yl)-1-hydroxy-1-(5-methyl-2-pyrimidinyl)-2-propanesulfonamide], which EC50 is on record?
The EC50 was 0.81 nM.

With `COc1ncnc(OC)c1-n1c(NS(=O)(=O)CCc2ccc(Cl)cc2)nnc1-c1ccccc1` [Example 19.0, 2-(4-chlorophenyl)-N-(4-(4,6-dimethoxy-5-pyrimidinyl)-5-phenyl-4H-1,2,4-triazol-3-yl)ethanesulfonamide] as the compound, how does the EC50 read?
The EC50 was 40 nM.

For `COc1ncnc(OC)c1-n1c(NS(=O)(=O)[C@@H](C)[C@H](O)c2ncc(C)cn2)nnc1-c1ccccc1` [Example 20.0, (1R,2S)-N-(4-(4,6-dimethoxy-5-pyrimidinyl)-5-phenyl-4H-1,2,4-triazol-3-yl)-1-hydroxy-1-(5-methyl-2-pyrimidinyl)-2-propanesulfonamide], which EC50 is on record?
The EC50 was 5.3 nM.
